# Literature values, collected in US20100008923A1, “Organic Compounds” (Novartis AG, priority 2006, published 2010).
# What was measured:
# [1] = for Potential side effects at upper limits: at upper limit of daily intake
# HDAC = conditions: Kwon et al. (1998)
compound,measurement,setting,value
"O=C(O)c1cccnc1 [B3, nicotinic acid]",Potential side effects at upper limits,[1],Liver problems
same,Upper limit of daily intake,[1],Above 3000 mg
"Cc1ncc(CO)c(CO)c1O [B6, pyridoxine]",Upper limit of daily intake,[1],Above 100 mg
"Nc1nc2ncc(CNc3ccc(C(=O)N[C@@H](CCC(=O)O)C(=O)O)cc3)nc2c(=O)[nH]1 [B9, folic acid]",Potential side effects at upper limits,[1],No known
cyanocobalamin [B12],Potential side effects at upper limits,[1],No known
depudecin,HDAC inhibition,HDAC,inhibit HDAC at micromolar concentrations
